Values joined by “and” are separate entries in the source; they are usually repeats but may differ in a detail not shown here. Equal values may be shown once.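 Assay format: 96-well plates, 48-hour exposure. GI50: concentration for 50% inhibition of growth. TGI denotes the concentration required for complete inhibition of growth.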
Legend:
Test in all cases: NCI anticancer screen, dose series, 48 h
SF-268 CNS = system: SF-268 CNS
OVCAR-4 ovarian = system: OVCAR-4 ovarian
A498 renal = system: A498 renal
SF-295 CNS = system: SF-295 CNS
HOP-62 NSCLC = system: HOP-62 NSCLC
OVCAR-5 ovarian = system: OVCAR-5 ovarian
MDA-MB-231 breast = system: MDA-MB-231 breast
UACC-62 melanoma = system: UACC-62 melanoma
SR leukemia = system: SR leukemia
HL-60(TB) leukemia = system: HL-60(TB) leukemia

Row | SMILES | TGI (SF-268 CNS) [µM] | TGI (OVCAR-4 ovarian) [µM] | TGI (A498 renal) [µM] | TGI (SF-295 CNS) [µM] | TGI (HOP-62 NSCLC) [µM] | TGI (OVCAR-5 ovarian) [µM] | TGI (MDA-MB-231 breast) [µM] | TGI (UACC-62 melanoma) [µM] | TGI (SR leukemia) | TGI (HL-60(TB) leukemia) [µM] | GI50 (OVCAR-5 ovarian) [µM] | GI50 (OVCAR-4 ovarian) [µM] | GI50 (A498 renal) [µM] | GI50 (SF-295 CNS) [µM] | GI50 (HOP-62 NSCLC) [µM] | GI50 (MDA-MB-231 breast) [µM] | GI50 (UACC-62 melanoma) [µM]
1 | Cc1cc(-c2[nH]c(C(=O)O)cc2I)on1 | > 100 | > 100 | > 100 | > 100 | > 100 | > 100 | > 100 | > 100 |  |  |  |  |  |  |  |  | 
2 | CCC1C(c2cccc(OC)c2O)c2cc3c(cc2OC1N1CCCC1)OCO3 (configuration not stated) | 58.9 |  |  | 50.8 | 46.3 | 76.9 |  | 65.9 | 50.4 µM |  |  |  |  |  |  |  | 
3 | Cn1c(C(C#N)c2nc(Cl)ncc2Br)nc2ccccc21 (configuration not stated) | > 100 | > 100 | > 100 | > 100 | > 100 | > 100 | > 100 |  |  |  |  |  |  |  |  |  | 
4 | Cc1ccsc1/C=N/Nc1cc(C)c2cccc(C)c2n1 | > 100 | > 100 | > 100 | > 100 | > 100 | > 100 |  | > 100 |  | 71.2 |  |  |  |  |  |  | 
5 | Cc1cc(O)c2c(c1O)C(=O)C13C(=C2O)C(=O)C2C(O)C1C1C(O)C3C(=O)C3=C(O)c4c(O)cc(C)c(O)c4C(=O)C321 (configuration not stated) | 0.458 | 7.24 | 0.253 | 0.311 | 0.526 | 9.41 |  |  |  |  |  |  |  |  |  |  | 
6 | O=C(Nc1nc2ccccc2n1Cc1ccccc1)NC12CC3CC(CC(C3)C1)C2 | 35.5 | 82.8 |  | 37 | > 100 | > 100 |  | > 100 | > 100 µM | > 100 |  |  |  |  |  |  | 
7 | CCCCCCCCCCCCCCCCCCNc1ccn(C2OC(COP(=O)(O)OCC3CCC(n4cnc5c(=O)[nH]cnc54)O3)C(O)C2O)c(=O)n1 (configuration not stated) | > 100 | > 100 | > 100 | > 100 | > 100 | > 100 |  | > 100 |  |  |  |  |  |  |  |  | 
8 | O=C1O/C(=C(\Br)c2cccc3ccccc23)c2ccccc21 | > 55.7 | 30.9 | 34.6 | > 53.6 | > 100 | > 54.9 |  | > 55.6 | 51.5 µM | 47.7 |  |  |  |  |  |  | 
9 | CCOC(=O)Oc1cc2c(c(OC)c1OC)-c1ccc(SC)c(=O)cc1C(NC(=O)C(F)(F)F)CC2 (configuration not stated) |  |  | 0.554 | > 100 | > 100 | > 100 |  | > 100 | 5.4 µM and 15.6 µM | 0.0148 | 18.2 |  |  |  |  |  | 
10 | CCCCc1c(C(=O)OC(C)(C)C)cc(C#Cc2cc(C(=O)OC(C)(C)C)c(CCCC)c(C(=O)OC(C)(C)C)c2)cc1C(=O)OC(C)(C)C | > 100 | > 100 | > 100 | > 100 | > 100 | > 100 | > 100 | > 100 |  |  |  |  |  |  |  |  | 
11 | O=c1[nH]nc(-c2ccccc2)n1/N=C/c1ccncc1 | > 100 | > 100 | 71.6 | > 100 | > 100 | > 100 |  | > 100 | > 100 µM | > 100 |  |  |  |  |  |  | 
12 | C=C1C(=O)OC2(C)C3CCC(C3)C12 (configuration not stated) | > 100 | > 100 |  | > 100 | > 100 | > 100 |  | > 100 | > 100 µM | 84.6 |  |  |  |  |  |  | 
13 | Cc1nc2c(n1C(C)(C)C)C(=O)c1ccccc1C2=O | > 100 | > 100 |  | > 100 | > 100 |  |  | > 100 | > 100 µM | > 100 |  |  |  |  |  |  | 
14 | COc1ccccc1-c1cc(=O)c2ccccc2[nH]1 | > 100 |  |  | > 100 | > 100 |  |  | > 100 | > 100 µM | > 100 |  |  |  |  |  |  | 
15 | O=C(Nc1nc2c(=O)[nH]cnc2s1)c1ccccc1 | > 100 | > 100 | > 100 | > 100 | > 100 | > 100 |  | > 100 | 61.9 µM | > 100 |  |  |  |  |  |  | 
16 | CC(C)CCC[C@@H](C)[C@H]1CCC2C3CC=C4C[C@@H](Oc5c6ccccc6nc6ccccc56)CCC4C3CCC21 (some centres not stated) | > 50 | > 50 |  | > 50 | > 50 | > 50 | > 50 | > 50 |  | > 50 |  |  |  |  |  |  | 
17 | CCOc1ccc(/C=C(\Cl)c2ccc(OC)c(OC)c2)cc1 | > 100 | > 100 | > 100 | > 100 | > 100 |  |  | > 100 | 91.4 µM | > 100 |  |  |  |  |  |  | 
18 | CC(=O)[C@@H]1CCC=C2CC[C@]3(C)[C@@H](CC[C@@H]4[C@@]5(C)CCCNC(C)(C)[C@@H]5CC[C@]43C)[C@H]21 |  | 3.39 | 3.79 | 3.26 | 3.4 |  | 3.35 | 3.16 |  |  |  | 1.86 | 2.03 | 1.81 | 1.82 | 1.81 | 1.73
19 | CCCCCC(=O)c1ccc2[nH]c3c(C)cc([N+](=O)[O-])c(C)c3c2c1 | > 100 | > 100 |  | > 100 | > 100 | > 100 |  |  | > 100 µM | > 100 |  |  |  |  |  |  | 
20 | Cc1c2c(cc3c1[nH]c1ccccc13)C=NCC2 | 49.6 | 53 | 40.3 | 27.1 | 56.4 | 61 |  | 21.5 |  | 27.8 |  |  |  |  |  |  | 
